One series deals with T1, ROCK1 (Homo sapiens, UniProt Q13464).
T1 construct: purchased Upstate/Chemicon 14-601
The series can be described thus: Rho kinase inhibition assay (IMAP fluorescence polarization), ROCK1. It counts as biochemical. As to the method:
Following the pre-incubation, 10 μM ATP was added to initiate the reaction. After 60 minutes at room temperature, Molecular Devices IMAP™ binding solution was added to bind phosphorylated substrate. After 30 minutes of incubation in the presence of the IMAP™ beads, the fluorescence polarization was read and the ratio was reported as mP.
In general terms: Fluorescence polarisation rises when a labelled molecule tumbles more slowly, as on binding a larger partner.

The target in another series is T2, ROCK2 (Homo sapiens, UniProt O75116).
T2 construct: purchased Upstate/Chemicon 14-451
T2 sequence (O75116 whole entry): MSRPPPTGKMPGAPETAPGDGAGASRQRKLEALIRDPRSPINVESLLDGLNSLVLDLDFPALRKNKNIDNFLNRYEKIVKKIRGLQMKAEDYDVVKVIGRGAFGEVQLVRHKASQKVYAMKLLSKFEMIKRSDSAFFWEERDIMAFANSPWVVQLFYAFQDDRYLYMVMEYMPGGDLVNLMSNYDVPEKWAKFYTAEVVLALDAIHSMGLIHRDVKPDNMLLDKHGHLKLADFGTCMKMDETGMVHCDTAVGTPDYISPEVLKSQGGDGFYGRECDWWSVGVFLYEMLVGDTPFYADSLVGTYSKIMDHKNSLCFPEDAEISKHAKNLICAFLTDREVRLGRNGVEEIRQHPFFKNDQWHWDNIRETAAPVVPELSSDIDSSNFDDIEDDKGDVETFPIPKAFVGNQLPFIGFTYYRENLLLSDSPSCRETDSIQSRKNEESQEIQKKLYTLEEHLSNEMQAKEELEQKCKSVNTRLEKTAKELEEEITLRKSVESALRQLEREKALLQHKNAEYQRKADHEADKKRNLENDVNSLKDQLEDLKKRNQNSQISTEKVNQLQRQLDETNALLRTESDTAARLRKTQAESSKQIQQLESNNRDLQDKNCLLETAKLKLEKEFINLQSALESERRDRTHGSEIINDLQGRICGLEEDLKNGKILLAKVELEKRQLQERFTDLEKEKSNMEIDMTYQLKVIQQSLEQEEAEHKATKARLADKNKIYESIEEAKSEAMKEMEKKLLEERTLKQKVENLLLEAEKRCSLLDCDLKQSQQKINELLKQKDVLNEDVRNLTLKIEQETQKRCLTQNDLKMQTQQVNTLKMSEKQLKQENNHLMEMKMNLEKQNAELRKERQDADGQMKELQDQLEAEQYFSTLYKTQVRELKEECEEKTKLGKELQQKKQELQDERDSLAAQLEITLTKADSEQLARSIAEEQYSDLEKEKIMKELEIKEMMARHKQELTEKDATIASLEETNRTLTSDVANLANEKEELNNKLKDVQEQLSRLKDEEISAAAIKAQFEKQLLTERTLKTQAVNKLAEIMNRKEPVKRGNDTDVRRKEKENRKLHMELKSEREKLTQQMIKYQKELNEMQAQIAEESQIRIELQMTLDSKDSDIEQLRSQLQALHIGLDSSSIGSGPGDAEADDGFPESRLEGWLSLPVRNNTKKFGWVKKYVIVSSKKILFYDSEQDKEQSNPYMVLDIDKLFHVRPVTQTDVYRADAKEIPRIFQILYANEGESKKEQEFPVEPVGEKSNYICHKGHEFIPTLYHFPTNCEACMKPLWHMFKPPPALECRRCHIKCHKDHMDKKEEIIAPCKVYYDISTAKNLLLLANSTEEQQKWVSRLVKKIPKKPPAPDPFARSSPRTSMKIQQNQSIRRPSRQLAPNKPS
The series can be described thus: Rho kinase inhibition assay (IMAP fluorescence polarization), ROCK2. Type of series: biochemical. As to conditions: 10 μM ATP, 60 min at room temperature. As to the method: (Molecular Devices product number R7184) was pre-incubated with a test compound for 5 minutes in buffer containing 10 mM Tris-HCl pH 7.2, 10 mM MgCl2, and 0.1% BSA. Following the pre-incubation, 10 μM ATP was added to initiate the reaction. After 60 minutes at room temperature, Molecular Devices IMAP™ binding solution was added to bind phosphorylated substrate. After 30 minutes of incubation in the presence of the IMAP™ beads, the fluorescence polarization was read and the ratio was reported as mP.
See Tian et al., Arch. Ophthalmol. […] Ophthalmol. Vis. […] Ophthalmol. […] Cytoskel. […] Ophthalmol. Vis. […] Ophthalmol. Vis.

Series [1] is described as follows: Ocular surface and aqueous humor bioavailability. Type of series: in vivo, New Zealand White rabbits. The settings on record: New Zealand White, rabbit, topical, 30 μl of 1 mM (0.04% w/v) per eye. As to the method:
Dose Formulation and Administration. Compounds 14 (prodrug) and 49 (base compound) were formulated at 0.04% w/v (the equivalent millimolar concentration is 1 mM) in 10 mM phosphate, 0.8% polysorbate 80, 0.85% NaCl, 0.01% BAC, 0.1% EDTA at pH 7.3. Each compound was administered as a 30 μl drop to both eyes of each animal within a dosing group and the ocular and systemic exposure was examined as described in Example 49.
Study sampling. 40 μL of saline was applied to the eyes at 0.083, 1, 2, and 4 hours after administration of each compound and the lavage fluids were collected as samples. Aqueous humor and ocular surface samples were obtained from 2 animals (4 eyes) per dosing group at 0.083, 1, 2, and 4 hours post dosing, by the methods described in Example 49. Ocular surface relates to the surface of the cornea and conjunctiva. Ocular surface residence time is the average time that a compound resides on the ocular surface.

The mark [2] stands for this setting: 10 μM ATP, 60 min at room temperature, read-out: ROCK1 IC50.
[3] abbreviates: ocular surface (saline lavage fluid).

Like-named read-outs stand apart in the source and are kept apart here.

Experimental findings from US20130131059A1, “METHOD FOR TREATING OPHTHALMIC DISEASES USING KINASE INHIBITOR COMPOUNDS IN PRODRUG FORMS” (INSPIRE PHARMACEUTICALS, INC., priority 2010, published 2013) are described below.

T1 sequence (Q13464 whole entry): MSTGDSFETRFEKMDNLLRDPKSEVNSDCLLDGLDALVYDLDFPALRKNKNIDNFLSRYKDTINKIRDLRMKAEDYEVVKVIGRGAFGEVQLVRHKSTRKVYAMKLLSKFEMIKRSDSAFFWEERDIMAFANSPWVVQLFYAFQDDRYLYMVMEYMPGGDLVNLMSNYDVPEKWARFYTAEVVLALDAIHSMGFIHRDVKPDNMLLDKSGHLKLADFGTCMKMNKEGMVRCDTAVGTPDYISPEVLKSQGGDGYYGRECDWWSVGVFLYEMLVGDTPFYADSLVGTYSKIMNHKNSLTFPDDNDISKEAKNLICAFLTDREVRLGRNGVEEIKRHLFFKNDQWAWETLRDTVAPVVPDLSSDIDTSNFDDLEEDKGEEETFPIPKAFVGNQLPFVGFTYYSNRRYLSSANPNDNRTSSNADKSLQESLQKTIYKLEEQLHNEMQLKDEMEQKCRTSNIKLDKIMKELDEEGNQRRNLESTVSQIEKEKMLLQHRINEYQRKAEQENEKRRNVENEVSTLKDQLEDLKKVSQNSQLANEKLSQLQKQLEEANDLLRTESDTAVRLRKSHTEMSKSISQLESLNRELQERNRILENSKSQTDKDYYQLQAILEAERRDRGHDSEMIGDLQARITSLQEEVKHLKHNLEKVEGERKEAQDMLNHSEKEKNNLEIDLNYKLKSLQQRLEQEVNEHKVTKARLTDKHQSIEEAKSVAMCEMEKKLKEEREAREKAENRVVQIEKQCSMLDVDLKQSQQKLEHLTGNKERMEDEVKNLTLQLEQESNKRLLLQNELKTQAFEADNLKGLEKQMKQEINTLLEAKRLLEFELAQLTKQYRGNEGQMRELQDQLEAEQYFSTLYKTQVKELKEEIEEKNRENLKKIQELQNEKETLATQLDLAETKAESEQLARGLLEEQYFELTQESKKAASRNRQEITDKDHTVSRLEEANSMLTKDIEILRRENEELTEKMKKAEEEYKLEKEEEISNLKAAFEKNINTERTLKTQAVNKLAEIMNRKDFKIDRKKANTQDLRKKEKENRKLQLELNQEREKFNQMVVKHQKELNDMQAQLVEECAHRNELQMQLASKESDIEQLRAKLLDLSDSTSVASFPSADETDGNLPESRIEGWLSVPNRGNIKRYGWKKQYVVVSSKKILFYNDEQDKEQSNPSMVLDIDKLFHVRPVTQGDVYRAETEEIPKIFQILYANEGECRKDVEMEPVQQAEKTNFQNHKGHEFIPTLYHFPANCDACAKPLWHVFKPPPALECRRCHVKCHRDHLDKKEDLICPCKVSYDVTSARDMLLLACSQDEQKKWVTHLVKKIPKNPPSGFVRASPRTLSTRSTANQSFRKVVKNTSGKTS

For “tert-Butyl (4-(((S)-3-(1H-indazol-5-ylamino)piperidin-1-yl)methyl)phenyl) methylcarbamate [Compound 43]”, the results for the IC50 at ROCK1 (setting [2]) and against ROCK2 were 25.4 µM and 4 µM, respectively.

As for `CC1(C(=O)OCCOc2cccc(CN3CC[C@@H](Nc4cccc5cnccc45)C3)c2)CC1` [Compound 19, 2-(3-(((R)-3-(isoquinolin-5-ylamino)pyrrolidin-1-yl)methyl)phenoxy)ethyl 1-methylcyclopropanecarboxylate], the IC50 (in general, the concentration at which inhibition is half-maximal) on ROCK1 (setting [2]) came to 3.06 µM; against ROCK2, 1.05 µM.

On to `OCCOc1cccc(CN2CC[C@@H](Nc3cccc4cnccc34)C2)c1` [Compound 48, 2-(3-(((R)-3-(isoquinolin-5-ylamino)pyrrolidin-1-yl)methyl)phenoxy)ethanol], for which the values for the IC50 against ROCK1 and against ROCK2 were 0.019 µM and 0.0067 µM, respectively.

Turning to `CCOC(=O)c1ccc(CN2CCC[C@H](Nc3ccc4[nH]ncc4c3)C2)cc1` [Compound 45, Ethyl 4-(((S)-3-(1H-indazol-5-ylamino)piperidin-1-yl)methyl)benzoate], the IC50 against ROCK1 was determined as 45.5 µM; against ROCK2, 6.18 µM.

Regarding `CC(C)CC(=O)OCCOc1cccc(CN2CC[C@@H](Nc3cccc4cnccc34)C2)c1` [Compound 18, 2-(3-((((R)-3-(isoquinolin-5-ylamino)pyrrolidin-1-yl)methyl)phenoxy)ethyl 3-methylbutanoate)], the IC50 on ROCK1 (setting [2]) is 3.82 µM; against ROCK2 it was 1.49 µM.

Turning to `Cc1ccc(CN2CCC[C@@H](Nc3ccc4[nH]ncc4c3)C2)cc1OCCOC(=O)c1ccccc1` [Compound 26, 2-(5-(((R)-3-(1H-indazol-5-ylamino)piperidin-1-yl)methyl)-2-methylphenoxy)ethyl benzoate], the IC50 worked out at 6.06 µM at ROCK1 (setting [2]) and 0.621 µM against ROCK2.

For `O=C(OCCOc1cccc(CN2CCC[C@@H](Nc3ccc4[nH]ncc4c3)C2)c1)c1ccccc1` [Compound 32, 2-(3-((R)-3-(1H-indazol-5-ylamino)piperidin-1-yl)methyl)phenoxy)ethyl benzoate], the IC50 amounted to 7.08 µM against ROCK1 and 3.02 µM against ROCK2.

In the case of `CC(C)(C)C(=O)OCCOc1cccc(CN2CC[C@@H](Nc3cccc4cnccc34)C2)c1` [Compound 20, 2-(3-(((R)-3-(isoquinolin-5-ylamino)pyrrolidin-1-yl)methyl)phenoxy)ethyl pivalate], the figures for the IC50 at ROCK1 (setting [2]) and against ROCK2 were 4.81 µM and 1.77 µM, respectively.

Compound “tent-Butyl (3-((3-(1H-indazol-5-ylamino)piperidin-1-yl)methyl)phenyl)methyl carbamate [Compound 40]” gave an IC50 at ROCK2 of 6.59 µM.

As for `CC(=O)Nc1ccc(CN2CCC(Nc3cccc4cnccc34)C2)cc1` (stereo not drawn) [Compound 25, N-(4-((3-(isoquinolin-5-ylamino)pyrrolidin-1-yl)methyl)phenyl)acetamide], at ROCK2, the IC50 was found to be 2.3 µM.

`CCOC(=O)COc1cccc(CN2CCC[C@H](Nc3ccc4[nH]ncc4c3)C2)c1` [Compound 28]: the values for the IC50 on ROCK1 and at ROCK2 were 1.03 µM and 0.109 µM, respectively.

As for `CCOC(=O)c1ccc(CN2CCC[C@@H](Nc3ccc4[nH]ncc4c3)C2)cc1` [Compound 44, Ethyl 4-(((R)-3-(1H-indazol-5-ylamino)piperidin-1-yl)methyl)benzoate], the figures for the IC50 on ROCK1 and at ROCK2 were 117 µM and 6.19 µM, respectively.

Regarding `CCOC(=O)COc1cccc(CN2CCCC(Nc3ccc4[nH]ncc4c3)C2)c1` (stereo not drawn) [Compound 41, Ethyl 2-(3-((3-(1H-indazol-5-ylamino)piperidin-1-yl)methyl)phenoxy)acetate], on ROCK2, inhibition was half-maximal at 0.087 µM (IC50).

For `CCOC(=O)OCCOc1cccc(CN2CC[C@@H](Nc3cccc4cnccc34)C2)c1` [Compound 17, 2-(3-(((R)-3-(isoquinolin-5-ylamino)pyrrolidin-1-yl)methyl)phenoxy)ethyl ethyl carbonate], the IC50 on ROCK1 (setting [2]) was 1.22 µM; against ROCK2, 0.369 µM.

For the compound `O=C(COc1cccc(CN2CCC[C@@H](Nc3ccc4[nH]ncc4c3)C2)c1)Nc1cccnc1` [Compound 33, 2-(3-(((R)-3-(1H-indazol-5-ylamino)piperidin-1-yl)methyl)phenoxy)-N-(pyridin-3-yl)acetamide], the IC50 against ROCK1 is 1.01 µM; against ROCK2, 0.155 µM.

Regarding `O=C(COc1cccc(CN2CCC[C@@H](Nc3ccc4[nH]ncc4c3)C2)c1)N1CCOCC1` [Compound 34, 2-(3-(((R)-3-(1H-indazol-5-ylamino)piperidin-1-yl)methyl)phenoxy)-1-morpholinoethanone], the IC50 was determined as 1.28 µM at ROCK1 and 0.102 µM against ROCK2.

`CC(C)(C)OC(=O)COc1cccc(CN2CCC[C@H](Nc3ccc4[nH]ncc4c3)C2)c1` [Compound 27, tert-Butyl 2-(3-(((S)-3-(1H-indazol-5-ylamino)piperidin-1-yl)methyl)phenoxy) acetate]: the IC50 against ROCK1 was found to be 3.44 µM; at ROCK2, 0.251 µM.

As for `CC(=O)NCCOc1cccc(CN2CCC[C@@H](Nc3ccc4[nH]ncc4c3)C2)c1` [Compound 29, N-(2-(3-(((R)-3-(1H-indazol-5-ylamino)piperidin-1-yl)methyl)phenoxy)ethyl) acetamide], the IC50 at ROCK1 came out at 5.16 µM; at ROCK2, 0.987 µM.

Take `CC(=O)NCCOc1cccc(CN2CCC[C@H](Nc3ccc4[nH]ncc4c3)C2)c1` [Compound 30, N-(2-(3-(((S)-3-(1H-indazol-5-ylamino)piperidin-1-yl)methyl)phenoxy)ethyl) acetamide]: the IC50 came out at 5.39 µM against ROCK1 and 0.451 µM on ROCK2.

`CC(=O)NCc1cccc(CN2CCC[C@@H](Nc3ccc4[nH]ncc4c3)C2)c1` [Compound 42, N-((3-(((R)-3-(1H-indazol-5-ylamino)piperidin-1-yl)methyl)phenyl)methyl) acetamide]: the IC50 was 2.42 µM on ROCK1 and 0.341 µM against ROCK2.

Regarding `O=C(OCCOc1cccc(CN2CC[C@@H](Nc3cccc4cnccc34)C2)c1)c1cccnc1` [Compound 21, 2-(3-(((R)-3-(isoquinolin-5-ylamino)pyrrolidin-1-yl)methyl)phenoxy)ethyl nicotinate], the IC50 is 1.91 µM on ROCK1 (setting [2]) and 0.512 µM at ROCK2.

Consider `O=C(OCCOc1cccc(CN2CCC[C@H](Nc3ccc4[nH]ncc4c3)C2)c1)c1ccccc1` [Compound 31, 2-(3-(((S)-3-(1H-indazol-5-ylamino)piperidin-1-yl)methyl)phenoxy)ethyl benzoate], for which the IC50 against ROCK1 is 5.65 µM; against ROCK2, 1.23 µM.

In turn, `Cc1ccc(CN2CC[C@@H](Nc3cccc4cnccc34)C2)cc1OCCO` [Compound 49, [2-(5-(((R)-3-(isoquinolin-5-ylamino)pyrrolidin-1-yl)methyl)-2-methylphenoxy)]ethanol] had an IC50 against ROCK1 of 0.0041 µM. In series [1] (aqueous humor), this compound came in with a concentration at 1 h of 93.9 nM, a concentration at 2 h of 24 nM and a concentration at 4 h of 3.4 nM. In series [1] (setting [3]), the concentration at 1 h was found to be 846 nM, the concentration at 2 h worked out at 893 nM and the concentration at 4 h was 65.7 nM.
